TGI data for 20 compounds are collected here from PubChem BioAssay (NCI).

Some test systems named below: CAKI-1 renal; DU-145 prostate; HCT-15 colon; HOP-62 NSCLC; HT29 colon; IGROV1 ovarian; MDA-MB-231 breast; NCI-H522 lung; SF-539 CNS; SK-MEL-2 melanoma; SN12C renal; HCC-2998 colon.
What all share (experiment): NCI tumour cell line growth inhibition, 48 h

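Results reflect a 48-hour exposure of cells in 96-well plates to compound at five concentrations. Definition used: TGI = concentration required for complete inhibition of growth.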 Where a SMILES comes first, the peptide text is derived from it. [ ]: non-standard residue; d: D form. The star is where a group is joined. ξ: configuration not given here. ξF = NC(Cc1ccccc1)C(=O)O; Cbz = O=C(OCc1ccccc1)*; Aib = CC(C)(N)C(=O)O

`CCOC(=O)C1(C/C=C/CCl)CCCC1=O` (stereo not drawn): the TGI in the experiment with CAKI-1 renal was 79.5 µM; in the experiment with DU-145 prostate, over 100 µM; in the experiment with HCT-15 colon, 40 µM; in the experiment with HOP-62 NSCLC, 45.1 µM; with HT29 colon, 68.4 µM; in the experiment on IGROV1 ovarian, 42 µM. In addition, the TGI came out at 42.5 µM in the experiment with MDA-MB-231 breast; 47 µM in the experiment on NCI-H522 lung; 40.6 µM with SF-539 CNS; 59 µM with SK-MEL-2 melanoma; 59.1 µM with SN12C renal.

`COc1cc(/C=C2\N=C(c3ccccc3)N(c3ccc(C(=O)c4ccccc4)cc3N3C(=O)/C(=C/c4ccc(O)c(OC)c4)N=C3c3ccccc3)C2=O)ccc1O`: the TGI was determined as 71 µM with CAKI-1 renal; 48.6 µM in the experiment on DU-145 prostate; 9.69 µM in the experiment with HCC-2998 colon; 40.3 µM in the experiment with HCT-15 colon; 48.9 µM in the experiment with HOP-62 NSCLC; 51.5 µM with HT29 colon. The TGI in the experiment on IGROV1 ovarian was 29.7 µM; in the experiment with MDA-MB-231 breast it was 43.8 µM; in the experiment on SF-539 CNS, 17.2 µM; with SK-MEL-2 melanoma, 29.9 µM; with SN12C renal, 62.7 µM.

On to `CCOC(=O)Cn1c2ccc(Br)cc2c2nc3ccccc3nc21`, for which the TGI with CAKI-1 renal, in the experiment with DU-145 prostate, in the experiment with HOP-62 NSCLC, in the experiment on HT29 colon, in the experiment on IGROV1 ovarian and in the experiment on MDA-MB-231 breast was over 100 µM each time. For the same compound, the TGI in the experiment on SK-MEL-2 melanoma and with SN12C renal was over 100 µM throughout.

Consider `C=C(C)[C@@H]1CCC2=C[C@H](C/C(C)=C\C3=CC(C)=C(O3)[C@H]1O)OC2=O`, for which the TGI was over 100 µM in the experiment on CAKI-1 renal; over 100 µM in the experiment on DU-145 prostate; over 100 µM in the experiment on HCC-2998 colon; over 100 µM with HCT-15 colon; over 100 µM with IGROV1 ovarian; 98.8 µM in the experiment on MDA-MB-231 breast. Besides, the TGI with NCI-H522 lung, in the experiment on SF-539 CNS, in the experiment on SK-MEL-2 melanoma and in the experiment with SN12C renal was over 100 µM each time.

As to `CCOC(=O)CNC(=O)C(Cc1ccccc1)NC(=O)C(C)(C)NC(=O)OCc1ccccc1` (stereo not drawn) (Cbz-[Aib]-[ξF]-Gly-OEt), the TGI in the experiment on CAKI-1 renal, with DU-145 prostate, in the experiment with HCC-2998 colon, in the experiment with HCT-15 colon, in the experiment with HOP-62 NSCLC and with HT29 colon was over 100 µM in each case. The TGI with IGROV1 ovarian, in the experiment with MDA-MB-231 breast and in the experiment with NCI-H522 lung was over 100 µM in each case.

For `C[Si](C)(C)c1ccc(-c2c3ccc(-c4cc(Br)cc(Br)c4)nc3nc3nc(-c4cc(Br)cc(Br)c4)ccc23)cc1`, the TGI in the experiment with CAKI-1 renal, in the experiment with DU-145 prostate, with HCC-2998 colon, in the experiment with HCT-15 colon, with HOP-62 NSCLC and with MDA-MB-231 breast was over 100 µM throughout. For the same compound, the TGI in the experiment with NCI-H522 lung, in the experiment on SK-MEL-2 melanoma and in the experiment on SN12C renal was over 100 µM throughout.

As for `NC(=O)C1CCCN1C(=O)C(N)Cc1ccccc1` (stereo not drawn) (H-Phe-Pro-NH2; configuration not given here), the TGI with CAKI-1 renal, in the experiment on DU-145 prostate, with HCC-2998 colon, in the experiment on HCT-15 colon, in the experiment on HOP-62 NSCLC and in the experiment with HT29 colon was over 100 µM each time. Further, the TGI in the experiment with IGROV1 ovarian, in the experiment on MDA-MB-231 breast and with NCI-H522 lung was over 100 µM throughout.

In the case of `OCC(O)CNc1ncnc2ccccc12` (stereo not drawn), the TGI in the experiment with CAKI-1 renal, in the experiment on DU-145 prostate, in the experiment on HCC-2998 colon, with HCT-15 colon, in the experiment on HOP-62 NSCLC and in the experiment on HT29 colon was over 100 µM throughout. Besides, the TGI with IGROV1 ovarian, in the experiment with MDA-MB-231 breast, in the experiment with NCI-H522 lung, in the experiment with SK-MEL-2 melanoma and with SN12C renal was over 100 µM throughout.

For the compound `Clc1cc(Cl)c2cc3cccc[n+]3cc2c1Cl`, the TGI in the experiment on CAKI-1 renal came out at 21 µM; in the experiment on DU-145 prostate it was 34 µM; in the experiment with HCC-2998 colon, 36.6 µM; in the experiment with HCT-15 colon it was 36.1 µM; in the experiment on HOP-62 NSCLC, 31.6 µM; in the experiment with HT29 colon, 30.7 µM. The TGI is 48.9 µM in the experiment on MDA-MB-231 breast, 32.4 µM in the experiment with SF-539 CNS, 30.1 µM with SK-MEL-2 melanoma and 39.5 µM in the experiment with SN12C renal.

In the case of `Cc1cc2c(c(O)c1-c1c(C)cc(O)c3c1C(=O)C=CC3=O)C(=O)C=CC2=O`, the TGI worked out at 1.48 µM in the experiment on CAKI-1 renal; 4.73 µM in the experiment with DU-145 prostate; 10.1 µM in the experiment on HCC-2998 colon; 56.5 µM with HOP-62 NSCLC; 5.11 µM with IGROV1 ovarian; 4.88 µM in the experiment with MDA-MB-231 breast. The TGI in the experiment on SF-539 CNS is 31.7 µM; with SK-MEL-2 melanoma, 62.1 µM; with SN12C renal, 7.59 µM.

In the case of `COc1ccc2[nH]c3c(c2c1)CC(=O)N1CCCC(CC3O)C1` (stereo not drawn), the TGI in the experiment with CAKI-1 renal, with DU-145 prostate, in the experiment on HCC-2998 colon, in the experiment with HCT-15 colon, with HT29 colon and with IGROV1 ovarian was over 100 µM each time. Further, the TGI in the experiment with MDA-MB-231 breast, in the experiment with NCI-H522 lung, in the experiment with SF-539 CNS, with SK-MEL-2 melanoma and in the experiment with SN12C renal was over 100 µM each time.

As for `CCCCCCCCCCCCCC1=C(O)C(=O)C(CC2=C(O)C(=O)C(CCCCCCCCCCCCC)=C(O)C2=O)=C(O)C1=O`, the TGI in the experiment with CAKI-1 renal, with DU-145 prostate, in the experiment on HT29 colon, in the experiment on IGROV1 ovarian, with MDA-MB-231 breast and with NCI-H522 lung was over 100 µM in each case. Moreover, the TGI with SF-539 CNS, in the experiment with SK-MEL-2 melanoma and with SN12C renal was over 100 µM in each case.

As for `CC1(CO)COS(=O)OC1` (stereo not drawn), the TGI with DU-145 prostate, with HCC-2998 colon, in the experiment on HCT-15 colon, in the experiment with HT29 colon, in the experiment with MDA-MB-231 breast and in the experiment on NCI-H522 lung was over 100 µM throughout. Besides, the TGI with SN12C renal is over 100 µM.

Take `CC(=O)O[C@H]1CC[C@H]2[C@@H]3CCC4=CC(=O)C=C[C@]4(O)[C@H]3CC[C@]12C`: the TGI in the experiment on CAKI-1 renal, in the experiment with DU-145 prostate, in the experiment with HCC-2998 colon, with HCT-15 colon, in the experiment with HOP-62 NSCLC and with IGROV1 ovarian was over 100 µM in each case. Besides, the TGI in the experiment on MDA-MB-231 breast is over 100 µM; in the experiment with SF-539 CNS, over 100 µM; with SK-MEL-2 melanoma, over 73.4 µM; with SN12C renal, over 100 µM.

For `CON(C)C(=O)[C@H]1C[C@@]1(C)CO`, the TGI with CAKI-1 renal, in the experiment with DU-145 prostate, with HCC-2998 colon, in the experiment with HCT-15 colon, with HOP-62 NSCLC and with HT29 colon was over 100 µM each time. Also, the TGI with IGROV1 ovarian, in the experiment with MDA-MB-231 breast, in the experiment with SK-MEL-2 melanoma and in the experiment on SN12C renal was over 100 µM in each case.

As to `O=C(CSCC(=O)N/N=C/c1ccccc1)N/N=C\c1ccccc1`, the TGI in the experiment on CAKI-1 renal, with DU-145 prostate, in the experiment on HCT-15 colon, in the experiment with HOP-62 NSCLC, in the experiment with HT29 colon and with IGROV1 ovarian was over 100 µM in each case. Also, the TGI in the experiment on MDA-MB-231 breast, with NCI-H522 lung, in the experiment on SF-539 CNS, with SK-MEL-2 melanoma and with SN12C renal was over 100 µM in each case.

For the compound `Nc1[nH]c(=S)nc2nc3c(c(-c4ccccc4)c12)CCCC3`, the TGI in the experiment with CAKI-1 renal, in the experiment on DU-145 prostate, in the experiment on HCT-15 colon, in the experiment on HOP-62 NSCLC, in the experiment on HT29 colon and in the experiment with IGROV1 ovarian was over 100 µM in each case. For the same compound, the TGI with MDA-MB-231 breast, in the experiment with SF-539 CNS and in the experiment with SN12C renal was over 100 µM throughout.

As to `CC(C)CCCC(C)[C@H]1CC[C@H]2n3c(nc4ccccc43)CCC[C@]12C` (stereo partly drawn), the TGI amounted to 34.3 µM in the experiment with CAKI-1 renal; 58.5 µM in the experiment on DU-145 prostate; 33.4 µM in the experiment on HCT-15 colon; 40.6 µM with HOP-62 NSCLC; 26.4 µM in the experiment on HT29 colon; 34.6 µM in the experiment with IGROV1 ovarian. The TGI with MDA-MB-231 breast turned out to be 33 µM; with SF-539 CNS, 35.2 µM; with SK-MEL-2 melanoma, 35.5 µM; in the experiment with SN12C renal, 31.1 µM.

As for `O=C(NCCC1CN(C(=O)OCc2ccccc2)c2ccccc21)OCc1ccccc1` (stereo not drawn), the TGI in the experiment with CAKI-1 renal, with DU-145 prostate, in the experiment with HCC-2998 colon, in the experiment with HCT-15 colon, with HOP-62 NSCLC and in the experiment on HT29 colon was over 100 µM throughout. Besides, the TGI with IGROV1 ovarian, with MDA-MB-231 breast, in the experiment on NCI-H522 lung and in the experiment on SK-MEL-2 melanoma was over 100 µM throughout.

Take `CCc1n[nH]c(=O)n1/N=C(\C)c1ccc([N+](=O)[O-])cc1`: the TGI with CAKI-1 renal, in the experiment on DU-145 prostate, in the experiment on HCT-15 colon, with HOP-62 NSCLC, in the experiment on HT29 colon and with IGROV1 ovarian was over 100 µM each time. Also, the TGI in the experiment on MDA-MB-231 breast, in the experiment with SK-MEL-2 melanoma and with SN12C renal was over 100 µM each time.
